Reference: patent publication US11007269B2, “P53 degradation inducing molecule and pharmaceutical composition” (Tokyo University of Science Foundation, priority 2016, dated 2021)

Target: T1, MDM2 protein (Mus musculus, UniProt P23804)
T1 construct: from tissue; host or cells: liver of C57BL/6J wild-type mice
Assay: Western blot of MDM2 protein in liver of mice given the compound
Type: in vivo
Details: C57BL/6J mice, 48 hours after administration
Method: In Example 4, degradation (knockdown) of the endogenous wild-type p53 protein and MDM2 protein in mouse individuals in which TIBC-CANDDY_MLN had been administered was evaluated by Western blot analysis.
TIBC-CANDDY_MLN was dissolved in DMSO immediately before administration, and then dissolved in corn oil (Code No. 25606-55, Nacalai Tesque) so that the concentration of DMSO was 10 vol %, and then a dose of 50 mg/kg body weight or 100 mg/kg body weight was administered intraperitoneally to C57BL/6J wild-type mice (7 to 8 weeks old, male) (CLEA Japan, Inc.) (n=3). As a control, an injection carrier (corn oil containing 10 vol % DMSO) was used. The mice were kept under an environment of ad libitum access to food and water. […]
The frozen tissue (0.04 g) was triturated, and then 980 μL of 1×TKM tissue lysis buffer (50 mM triethanolamine (pH 7.8), 50 mM KCl, 5 mM MgCl2, 0.25 M sucrose, 1 mM PMSF, protein inhibitors cocktail-EDTA free (Code No. 03969-21, Nacalai Tesque), 1 mM DTT, Recombinant RNase inhibitor 5 μl/mL (40 U/μl, Cat No. 2313A, Lot No. K8402DA, TAKARA Bio)) was added, and dissolved by rotation for 15 minutes (1 rpm, 25° C.). […] The concentration of proteins in the tissue extract was quantified with a spectrophotometer with the tissue extract that had been diluted 20 times using DEPC-treated water. […]

T1 sequence (P23804 whole entry): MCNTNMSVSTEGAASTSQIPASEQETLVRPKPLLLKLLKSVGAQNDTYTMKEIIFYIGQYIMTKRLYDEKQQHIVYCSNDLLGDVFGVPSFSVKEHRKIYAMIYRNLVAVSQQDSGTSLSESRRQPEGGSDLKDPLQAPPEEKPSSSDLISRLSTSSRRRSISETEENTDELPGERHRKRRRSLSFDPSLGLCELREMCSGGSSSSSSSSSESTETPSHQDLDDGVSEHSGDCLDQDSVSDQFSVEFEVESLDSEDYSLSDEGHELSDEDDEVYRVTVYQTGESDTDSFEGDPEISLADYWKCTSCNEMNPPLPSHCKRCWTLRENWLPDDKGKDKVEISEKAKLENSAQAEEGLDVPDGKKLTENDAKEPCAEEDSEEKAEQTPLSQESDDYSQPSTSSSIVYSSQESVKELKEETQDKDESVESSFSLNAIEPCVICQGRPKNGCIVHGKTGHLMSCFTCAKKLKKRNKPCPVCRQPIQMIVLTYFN

amount of MDM2 protein in the liver (50 mg/kg body weight intraperitoneally): reduced
amount of MDM2 protein in the liver (100 mg/kg body weight intraperitoneally): reduced
Structure (SMILES): CC(C)C[C@H](NC(=O)CNC(=O)c1cc(Cl)ccc1Cl)C(=O)NCCCCCCC(=O)Nc1ccc(C(=O)/C=C/c2ccc(I)cc2)cc1 [TIBC-CANDDY_MLN]
